The values below come from patent publication US5126341A, “Anti-inflammatory 1,8-naphthyridin-2-one derivatives” (Kyowa Hakko Kogyo Co., Ltd., priority 1990, dated 1992).

Each structure is given as a SMILES string. Where two headings read alike, the source gives them in different places.

Series [1] relates to Type III allergic reaction-induced pleurisy. Briefly: Effect on Type III allergic reaction-induced pleurisy. Type of series: in vivo, male Wistar rats. The following applies: po, 4.5 h, rat, 100 mg/kg p.o., four and a half hours after induction of pleurisy. As for the experimental part: d) Effect on Type III allergic reaction-induced pleurisy
IgG was purified from rabbit anti-OA serum prepared in advance by the method of Koda et al. [Folia Pharmacol., Japon 66, 237, (1970)] in the following manner.
A saturated solution of ammonium sulfate (half volume of the serum) was added to the anti-OA serum, and the mixture was left for one hour at 4° C. The precipitate was taken by centrifugation (3,000 rpm, 30 min, 4° C.) and dissolved in phosphate buffered saline of Dulbecco. Then, ammonium sulfate fractionation was carried out three times in the same manner as above, whereby a purified IgG fraction was obtained.
Male Wistar rats weighing 225-250 g were pre-bred for several days and fasted overnight prior to the experiment The test compound (100 mg/kg) was orally administered to the animals, and after 30 minutes, IgG of rabbit anti-OA (0.2 ml, 5 mg protein/ml) was injected into the pleural cavity of the animals under anesthesia with ether. Thirty minutes after the injection of IgG, OA (albumin egg grade III; Sigma Chemical Co.) was intravenously injected into the animals as an inducer of pleurisy. After two hours, Evans Blue (25 mg/kg) was intravenously injected, and four and a half hours after the induction of pleurisy, the animals were killed by bleeding.
Then, an exudate in the pleural cavity was obtained, and the volume of the exudate was measured. The pleural cavity was rinsed with 5 ml of physiological saline and the rinsings were added to the exudate. The number of infiltrated cells in the mixture was counted and the volume of the dye in the mixture was determined by the absorption at 625 nm [Agent Actions., 25, 326 (1988)]. The suppression rates for the volume of the exudate, the number of infiltrated cells and the volume of the dye in the pleural cavity were calculated by the following equation 3. [formula]
S.V: the value obtained with the group administered with the test compound and in which pleurisy is induced
N.V: the value obtained with the group in which pleurisy is not induced
P.V: the value obtained with the group administered with no test compound and in which pleurisy is induced

In series [2] the test system is carrageenin-induced paw edema. Briefly: Effect on carrageenin-induced paw edema. To be noted: po; rat, 100 mg/kg p.o., 1 hour before 1% carrageenin; paw volume 3 hours after injection; read-out: Suppression rate for paw swelling, (a) carrageenin-induced edema. The format is in vivo, male Wistar rats. As for the experimental part: a) Effect on carrageenin-induced paw edema
Male Wistar rats weighing 150 to 160 g (n=3-5) were used in the experiment. After the right hind paw volume was measured with the plethysmograph (TK-101; Unicom Co., Ltd.), the test compound (100 mg/kg) was orally administered. After one hour, 0.1 ml of 1 % carrageenin (λ-carrageenin; PICNIN-A®, Zushi Kagaku Co., Ltd.) was subcutaneously injected into the right hind paw footpad. Three hours after the injection of carrageenin, the right hind paw volume was measured and the swelling rate was determined by the following equation 1. [formula]
Vt: the right hind paw volume measured 3 hours after the injection of carrageenin
Vo: the right hind paw volume measured prior to the injection of carrageenin
The suppression rate was calculated by the following equation 2. [formula]
Swt: the swelling rate of the group administered with the test compound
Swc: the swelling rate of the control group administered with no test compound
On the technique in general: The carrageenan paw model is a standard test of acute inflammation.

Series [3] deals with zymosan-induced paw edema. Briefly: Effect on zymosan-induced paw edema. The format is in vivo, male Wistar rats. The following applies: rat, 100 mg/kg p.o., 1 hour before 1% zymosan; paw volume 4 hours after injection. As for the experimental part: b) Effect on zymosan-induced paw edema
The experiment was carried out in the same manner as in the carrageenin-induced paw edema test except that 1% zymosan (Zymosan A®; Sigma Chemical Co.) was used in place of 1% carrageenin and the right hind paw volume was measured 4 hours after the injection of the edema-inducing substance instead of 3 hours. The swelling rate and the suppression rate were calculated by equation 1 and equation 2, respectively.

A further series concerns male dd-mice. To be noted: mouse, in vivo, 10080 min; for Acute toxicity (MLD, Minimum Lethal Dose) i.p.: ip; for Acute toxicity (MLD, Minimum Lethal Dose) p.o.: po. As for the experimental part:
The test compounds were orally or intraperitoneally administered to male dd-mice weighing 20 to 25 g. MLD (Minimum Lethal Dose) was determined by observing the mortality for seven days after the administration.

Series [4] concerns arachidonic acid-induced paw edema. Briefly: Arachidonic acid-induced paw edema. The format is in vivo, male Wistar rats. To be noted: rat, 100 mg/kg p.o., 1 hour before 0.5% arachidonic acid; paw volume one hour after injection. As for the experimental part: c) Arachidonic acid-induced paw edema
The experiment was carried out in the same manner as in the carrageenin-induced paw edema test except that 0.5% arachidonic acid was used in place of 1% carrageenin and the right hind paw volume was measured one hour after the injection of the edema-inducing substance instead of 3 hours. The swelling rate and the suppression rate were calculated by equation 1 and equation 2, respectively.

[5] abbreviates: Evans Blue 25 mg/kg i.v., absorption at 625 nm, read-out: Suppression rate, volume of dye in the exudate.
The mark [6] stands for this setting: read-out: Suppression rate, number of infiltrated cells in the exudate.
The mark [7] stands for this setting: read-out: Suppression rate, volume of exudate.

For the compound `O=C(Nc1cccnc1)c1c(O)c2cccnc2n(-c2ccccc2)c1=O` [Compound 4, 4-Hydroxy-2-oxo-1-phenyl-N-(3-pyridyl)-1H-1,8-naphthyridine-3-carboxamide], the inhibition in vivo at 100 mg/kg was determined as 54.4% in series [1] (setting [5]), 30.5% in series [1] (setting [6]), 75.3% in series [1] (setting [7]) and 40% in series [2]. Besides, the “Suppression rate for paw swelling, (b) zymosan-induced edema” value in series [3] came to 37.8%. Besides, the “Acute toxicity (MLD, Minimum Lethal Dose) i.p.” value in the series with male dd-mice is > 100 mg/kg. The “Acute toxicity (MLD, Minimum Lethal Dose) p.o.” value in the series with male dd-mice was > 300 mg/kg. Also, the “Suppression rate for paw swelling, (c) arachidonic acid-induced edema” value in series [4] came to 34.9%.
For the compound `O=C(Nc1ccncc1)c1c(O)c2cccnc2n(-c2ccccc2)c1=O` [Compound 5, 4-Hydroxy-2-oxo-1-phenyl-N-(4-pyridyl)-1H-1,8-naphthyridine-3-carboxamide], the inhibition in vivo at 100 mg/kg in series [1] (setting [5]) stood at 66.5%; in series [1] (setting [6]), 58.6%; in series [1] (setting [7]), 100%; in series [2] it was 38.5%. The “Suppression rate for paw swelling, (b) zymosan-induced edema” value in series [3] is 38.4%. Also, in the series with male dd-mice, the “Acute toxicity (MLD, Minimum Lethal Dose) i.p.” value was > 100 mg/kg. Besides, the “Acute toxicity (MLD, Minimum Lethal Dose) p.o.” value in the series with male dd-mice is listed as 300 mg/kg. The “Suppression rate for paw swelling, (c) arachidonic acid-induced edema” value in series [4] is 48.0%.
Consider `O=C(NCc1ccncc1)c1c(O)c2cccnc2n(-c2ccccc2)c1=O` [Compound 28, 4-Hydroxy-2-oxo-1-phenyl-N-(4-pyridylmethyl)-1H-1,8-naphthyridine-3-carboxamide], for which the inhibition in vivo at 100 mg/kg in series [2] amounted to 27.3%. Further, in the series on male dd-mice, the “Acute toxicity (MLD, Minimum Lethal Dose) i.p.” value was > 100 mg/kg and the “Acute toxicity (MLD, Minimum Lethal Dose) p.o.” value was > 300 mg/kg. The “Suppression rate for paw swelling, (c) arachidonic acid-induced edema” value in series [4] stood at 41.6%.
